The values below come from patent publication EP2272342B1, “Herbicidal compositions” (BASF SE, priority 1993, dated 1994).

In one assay the test system is Solanum/Chenopodium. Kind of assay: Small field units in a maize field, 3-way tank-mix spray: weed control (Example 4). It counts as in vivo, solanum nigrum and chenopodium album. Particulars: 1500 a.i./ha; 14 days after treatment. The method, then:
Small field units in a maize field, infested with echinochloa crus galli, solanum nigrum and chenopodium album are sprayed with a tank-mix suspension of dimethenamid, sulcotrione and atrazine. The stage of the weeds is "full tillering" of echinochloa and "6-8 leaves stage" for solanum and chenopodium. The lot size is 8 meters in length and 3 meters in broadth. […] 14 days after treatment the efficacy is evaluated.

The next assay has as its system echinochloa crus galli. The description is as above. It counts as in vivo. To be noted: 1500 a.i./ha; 14 days after treatment. From the text: Small field units in a maize field, infested with echinochloa crus galli, solanum nigrum and chenopodium album are sprayed with a tank-mix suspension of dimethenamid, sulcotrione and atrazine. The stage of the weeds is "full tillering" of echinochloa and "6-8 leaves stage" for solanum and chenopodium. The lot size is 8 meters in length and 3 meters in broadth. The application rates are 1.08 kg/ha of dimethenamid, 150 or 210 g/ha of sulcotrione and 750 g/ha of atrazine. 14 days after treatment the efficacy is evaluated.

In a further assay the test system is large crabgrass. Kind of assay: Field trial in corn, tankmix at early post-emergence: weed control (Example 2). It counts as in vivo. The method, then: A field trial is carried out employing FRONTIER® 7.5 EC and ACCENT® 75 WDG in control of large crabgrass in corn. Application is as tankmix combination at early post-emergence of the weeds (3 and 4 leaf stages). Application rates of a.i. are 1.5 and 0.75 kg/ha for dimethenamid and 37.2 and 19.2 g/ha for nicosulfuron. Combined application of 0.75 kg/ha of dimethenamid and 19.2 g/ha of nicosulfuron gave 85% control with negligible corn damage compared with 35% of nicosulfuron applied alone at 19.2 g/ha and 72% for dimethenamid at a higher rate of […]. Combined application at the higher rate of dimethenamid with 37.2 g/ha of nicosulfuron gave an even more dramatic effect with 95% control compared with 72% for dimethenamid and only 45% for nicosulfuron each alone.

Another assay concerns cyperus rotundus. Nature of the assay: Field trial in sugar cane plots, tank mix by backpack sprayer: weed control (Example 5). It counts as in vivo. The method, then:
A field trial is carried out on plots (2 x 20 m) planted with sugar cane and infested with cyperus rotundus in the first or second growing stage and sprayed with a backpack sprayer in different concentrations in a tank mix. The amount of liquid spray broth is 400 I/ha.
The application rates are 2.7 kg/ha of dimethenamid with 60 g/ha of chlorimuron or with 1.6 kg/ha of a fixed ratio mixture of chlorimuron and diuron (1 : 19) which is commercially available as FRONT®. Visual evaluation is done 30 or 60 days after treatment (DAT) in percentage of control. The expected additive effect value is calculated according to the method of Colby: […]

The molecule `CCNc1nc(Cl)nc(NC(C)C)n1` [Atrazine, atrazine] had a Solanum/Chenopodium control in the assay on Solanum/Chenopodium of 16%. Besides, the Echinochloa control in the assay on echinochloa crus galli was 23%.
As to `COCC(C)N(C(=O)CCl)c1c(C)csc1C` (centres unmarked) [Dimethenamid, 2-chloro-N-(2,4-dimethyl-3-thienyl)-N-(2-methoxy-1-methylethyl)-acetamide], the control was determined as 72% in the assay with large crabgrass (dimethenamid alone at a higher rate of 1.25 g/ha (so in the source)) and 72% in the assay on large crabgrass (dimethenamid alone, higher rate (second comparison)). The “Cyperus Control (DAT)” value with cyperus rotundus (2.25 kg a.i./ha, light to medium soil, 30 DAT) was 23 (30 DAT) %; with cyperus rotundus (2.7 kg a.i./ha, heavy soil, 60 DAT) it was 10 (60 DAT) %; in the assay with cyperus rotundus (2.7 kg a.i./ha, light to medium soil, 30 DAT) it was 27 (30 DAT) %; in the assay with cyperus rotundus (2.7 kg a.i./ha, light to medium soil, 60 DAT), 19 (60 DAT) %.
For `COc1cc(OC)nc(NC(=O)NS(=O)(=O)c2ncccc2C(=O)N(C)C)n1` [nicosulfuron], the control in the assay on large crabgrass (nicosulfuron alone, 37.2 g/ha) is 45%; in the assay on large crabgrass (nicosulfuron applied alone at 19.2 g/ha), 35%.
As to chlorimuron, the “Cyperus Control (DAT)” value in the assay with cyperus rotundus (0.06 kg a.i./ha, light to medium soil, 30 DAT) is 58 (30 DAT) %.
